Structures are written as SMILES.

Data on one molecule can be found in US20030161893A1, “PTPase inhibitors and methods of using the same” (priority 2001, published 2003).

Data set [1] is described as follows: Tolerability in nude mice (viability, body weight, organs). The class given is in vivo. As for the experimental part:
Nude mice bearing WM9 or DU145 xenografts were treated with IFN-alpha (500,000 U, s.c., daily), sodium stibogluconate (12 mg Sb, s.c., daily) or both. […] The dosage of sodium stibogluconate corresponds to approximately 440 mg Sb/kg body weight (average mouse body weight 27 g), substantially higher than the standard therapeutic dose of 20 mg Sb/kg and the high dose (143 mg Sb/kg) that was clinically used by accident without serious toxicity. This dose of sodium stibogluconate was based on a previous observation in a pilot study that mice could tolerate daily dose of 20 mg Sb (approximately 700-800 mg Sb/kg). An observation that the effect of sodium stibogluconate in inhibiting the growth of the cancer cell lines in vitro was dose-dependent with complete or near complete killing of the cancer cells at […] (or 100 ug Sb/kg) was also considered. In light of the relatively rapid rate of clearance of the drug in vivo, 440 mg Sb/kg dosage was used to ensure the detection of the effectiveness of the drug for this initial study.
As discussed above, the dosage of sodium stibogluconate used for the treatment of nude mice was 12 mg Sb/mouse, s.c., daily (or approximately 440 mg/kg body weight). This dosage is much higher than the standard dose for leishmaniasis (20 mg Sb/kg, daily). As an initial step to assess the toxicity of such a high dosage of sodium stibogluconate in nude mice, the effect of sodium stibogluconate on the viability and body weights of WM9 xenografts nude mice during the 25 day period of the study was determined.
Athymic nude mice (nu/nu, NCR), 4 weeks old (Taconic), were inoculated (s.c.) in the flanks with DU145 cells (3×10^6 cells/site) on day 0. Starting on day 2, the mice were subjected to no treatment (Control) or treatment with sodium stibogluconate (12 mg, s.c., daily, […], at the hip area). The dosage of sodium stibogluconate used in the study was similar to the effective daily dose of sodium stibogluconate for the treatment of murine leishmaniasis (Murray, et al. 1988). Tumor volume was measured and calculated using the formula for a prolate spheroid (V=4/3 7 a^2b) (Lindner, et al. 1997). Hematoxylin+Eosin (H.E.) stained tissue sections of internal organs and tumor inoculation sites tissues of the mice were prepared and subjected microscopic evaluation.

The target in the next data set is T1, Flag-PRL-2 (Homo sapiens, UniProt Q12974).
T1 construct: expressed in transfected cells
The experiment in a line: Immunocomplex PTPase assay, Flag-PRL-2 NIH3T3 transfectants. The class given is cell-based. As for the experimental part:
Immunocomplex PTPase assays were performed to assess the effects of sodium stibogluconate on intracellular PTPases. Cells were untreated or treated with sodium stibogluconate for 5 minutes, washed with fresh medium and then lysed in cold lysis buffer (50 mM Tris, pH 7.4; 150 mM NaCl; 1% NP40; 2 mM PMSF; 20 ,g/ml of Aprotinin). The lysates were incubated with an anti-Flag antibody in immunoprecipitation assays. The immunocomplexes were collected with protein G sepharose beads (Pharmacia) and washed in cold lysis buffer for 4 times. […] 100 μL of malachite green solution (UBI) was added to each reaction prior to measurement of OD660 to quantify the amounts of free phosphate cleaved by the PTPases from the peptide substrate (Pathak et al., J. Imumol. 167, 3391 (2001)). The remaining 10% contents of individual samples were analyzed by SDS-PAGE/Western blotting to quantify the relative amounts of the phosphatase proteins. […]
The effects of sodium stibogluconate on intracellular PTPases were assessed using NIH3T3 or WM9 transfectants. […]

For the next data set, the target named is T2, PTP1B (Homo sapiens, UniProt P18031).
T2 construct: purchased Upstate Biotechnology Inc. (Lake Placid, N.Y.)
The experiment in a line: In vitro PTPase assay, GST/PTP1B fusion protein. The conditions noted are these: 0.1 to 1 μg/ml. Type of data set: biochemical. As for the experimental part: In vitro PTPase activities were measured using the commercial protein tyrosine phosphatase assay kit (Upstate Biotechnology, Inc. (“UBI”)) following established procedure known to one of skill in the art. This assay measures the in vitro dephosphorylation of a synthetic phosphotyrosine peptide of the sequence Arg-Arg-Leu-Ile-Glu-Asp-Ala-Gle-Tyr-Ala-Ala-Arg-Gly, wherein the tyrosine is phosphorylated (SEQ ID NO: 3). Briefly, 0.01 μg of GST/PTPase fusion proteins was incubated in 50 μl of Tris buffer (10 mM Tris, pH 7.4) containing different concentrations of inhibitors or chemicals (0-1,000 μg/ml) at 22° C. for 10 minutes, followed by addition of 0.2 mM of the phosphotyrosine peptide and incubation at 22° C. for 18 hours. 100 μl of Malachite Green solution was added and incubated for 5 minutes, and the absorbance at 660 nm was measured after 5 minutes.

In the next data set the test system is LoVo cells. The data set can be described thus: Cell growth assay (MTT), LoVo colon cancer cells. Type of data set: cell-based, human. The settings on record: 100 μg/ml, day 6. As for the experimental part: (§1) NIH3T3 (Yi, et al., Blood 85, 87 (1995)), WM9 (Forsberg, et al., Proc. Nat. Acad Sci. USA 90, 393 (1993)), DU145 (Mickey, et al., Cancer Res. 37, 4049 (1977)), LoVo (Drewinko, et al., Cancer Res. 36, 467 (1976)), HEY (Buick, et al., Cancer Res. 45, 3668 (1985)), U251 (Yoshida, et al., Cancer 50, 410 (1982)), A549 (Giard, et al., J. Natl. Cancer Inst. 51, 1417 (1973)) and SK-N-SH (Helson, et al., Cancer Res. 35, 2594 (1975)) cell lines have been described and were cultured in RPMI 1640 supplemented with 10% fetal calf serum (FCS). For measurement of sodium stibogluconate effects on cell growth in vitro, cells were cultured in the absence (−) or presence (+) of various amounts of sodium stibogluconate for 6 days with viable cells quantified by MTT assays (Mosmann, J. Imunol. Methods 65, 55 (1983)). Percentages of growth inhibition by sodium stibogluconate were calculated (+/−×%).

Another data set concerns SK-N-SH cells. The experiment in a line: Cell growth assay (MTT), SK-N-SH neuroblastoma cells. The class given is cell-based, human. The settings on record: 100 μg/ml, day 6. As for the experimental part: as §1

T1 sequence (Q12974 whole entry): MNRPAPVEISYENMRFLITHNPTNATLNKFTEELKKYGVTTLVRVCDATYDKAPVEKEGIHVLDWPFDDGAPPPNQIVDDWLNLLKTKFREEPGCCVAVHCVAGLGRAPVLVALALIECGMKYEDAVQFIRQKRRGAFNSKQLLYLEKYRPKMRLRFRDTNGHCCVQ
T2 sequence (P18031 whole entry, species assumed): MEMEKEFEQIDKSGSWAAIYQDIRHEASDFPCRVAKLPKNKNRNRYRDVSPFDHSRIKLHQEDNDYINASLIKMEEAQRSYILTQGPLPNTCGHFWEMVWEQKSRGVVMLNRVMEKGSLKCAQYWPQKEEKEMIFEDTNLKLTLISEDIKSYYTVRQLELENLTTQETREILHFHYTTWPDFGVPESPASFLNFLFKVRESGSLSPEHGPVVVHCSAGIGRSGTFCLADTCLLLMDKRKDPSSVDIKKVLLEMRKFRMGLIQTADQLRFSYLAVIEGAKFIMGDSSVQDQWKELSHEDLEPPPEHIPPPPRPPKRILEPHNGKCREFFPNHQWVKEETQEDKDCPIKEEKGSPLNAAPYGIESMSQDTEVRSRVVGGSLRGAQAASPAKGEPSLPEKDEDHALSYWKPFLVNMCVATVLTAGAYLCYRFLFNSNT

On to `O.O.O.O.O.O.O.O.O.O=C([O-])[C@@H]1[O][Sb]2([O-])([O][Sb]34([OH])[O][C@H]([C@H](O)CO)[C@H]([O]3)[C@H](C(=O)[O-])[O]4)[O][C@H]([C@H](O)CO)[C@@H]1[O]2.[Na+].[Na+].[Na+]` [sodium stibogluconate], for which the “tolerability at the dosage used” value in data set [1] (12 mg Sb daily (440 mg Sb/kg daily)) was “well tolerated with no serious side effects”. For the same molecule, the “survival of DU145 tumor mice” value in data set [1] (440 mg/kg daily) is on record as “survived until the end of the study”. The “histology of major organs” value in data set [1] (440 mg/kg daily, DU145 tumor mice) is recorded as “unremarkable”. The “tolerated daily dose in mice (pilot study)” value in data set [1] (approximately 700-800 mg Sb/kg) was 20 mg Sb. Further, in data set [1] (day 25, 4 mice/group), the “survival of WM9 xenograft nude mice” value is on record as “survived until the end of the study”. In addition, on Flag-PRL-2 (brief treatment, NIH3T3 transfectants), the “time for full removal of effect on intracellular PRL-2 activity” value was “at least 24 hours”. Further, the “PTPase activity of anti-Flag immunocomplexes, Flag-PRL-2” value on Flag-PRL-2 (cells treated 5 min) was “lack of PTPase activity”. In addition, on PTP1B, the “inhibition of PTP1B activity” value is “only modestly effective”. Moreover, the “cell killing, LoVo” value in the data set with LoVo cells is “near-complete cell killing”. Further, in the data set with SK-N-SH cells, the “cell killing, SK-N-SH” value is “near-complete cell killing”.
